Test results taken from patent US20230086703A1, “N-(4-(5-chloropyridin-3-yl)phenyl)-2-(2-(cyclopropanesulfonamido)pyrimidin-4-yl) butanamide derivatives and related compounds as human CTPS1 inhibitors for the treatment of proliferative diseases” (Step Pharma S.A.S., priority 2019, published 2023).

Molecular target: T1, human CTPS1 (Homo sapiens, UniProt P17812)
T1 construct: FLAG (with GG linker); His8 (with GG linker); purchased Proteros biostructures GmbH
T1 sequence (P17812 1-591): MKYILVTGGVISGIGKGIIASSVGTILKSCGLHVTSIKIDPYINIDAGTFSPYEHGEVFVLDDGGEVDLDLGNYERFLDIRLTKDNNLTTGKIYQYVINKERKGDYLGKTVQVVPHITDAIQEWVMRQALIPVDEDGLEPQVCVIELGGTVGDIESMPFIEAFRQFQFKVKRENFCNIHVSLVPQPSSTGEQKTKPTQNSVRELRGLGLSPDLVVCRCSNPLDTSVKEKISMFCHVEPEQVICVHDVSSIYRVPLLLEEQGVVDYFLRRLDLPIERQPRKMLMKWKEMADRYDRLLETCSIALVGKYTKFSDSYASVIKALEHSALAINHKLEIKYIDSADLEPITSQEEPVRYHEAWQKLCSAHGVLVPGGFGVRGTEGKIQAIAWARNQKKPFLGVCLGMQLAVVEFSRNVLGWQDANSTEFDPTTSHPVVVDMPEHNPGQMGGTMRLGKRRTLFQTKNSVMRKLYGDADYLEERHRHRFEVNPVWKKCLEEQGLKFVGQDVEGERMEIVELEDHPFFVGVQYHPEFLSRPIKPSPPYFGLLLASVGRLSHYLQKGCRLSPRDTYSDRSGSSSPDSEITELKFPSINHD
Test: RapidFire/MS-based enzyme selectivity assay (human CTPS1 versus CTPS2), CTPS1 isoform
Format: biochemical
Procedure: Human CTPS1 Versus CTPS2 Selectivity Assessment by RapidFire/MS Analysis.
The enzyme inhibitory activities against each target isoform of interest may be determined for the compounds of the invention using an optimised RapidFire high-throughput mass spectrometry (RF/MS) assay format. RF/MS assays for both human CTPS1 and CTPS2 may be performed in assay buffer consisting of 50 mM HEPES (Merck), 20 mM MgCl2, 5 mM KCl, 1 mM DTT, 0.01% Tween-20, pH to 8.0 accordingly. Human full-length active C-terminal FLAG-His-tag CTPS1 (UniProtKB—P17812, CTPS1[1-591]-[…] (CTPS1[1-591]-SEQ ID NO: 1)) may be obtained from Proteros biostructures GmbH. Human full length active C-terminal FLAG-His-Avi tagged CTPS2 (UniProtKB—Q9NRF8, CTPS2 [1-586]-[…] (CTPS2 [1-586]—SEQ ID NO: 2)) may be obtained from Harker Bio.
Human CTPS (1 or 2) protein may be prepared in 1× assay buffer to the final working protein concentration required for the reaction. A 2 uL volume per well of 2×CTPS (1 or 2) protein may be mixed with 40 nL of compound using acoustic (ECHO) delivery and incubated for 10 minutes at 25° C. Each isoform enzymatic reaction may be subsequently initiated by addition of 2 uL per well of a 2× substrate mix in assay buffer. For hCTPS1: ATP (0.3 mM), UTP (0.2 mM), GTP (0.07 mM) and L-glutamine (0.1 mM). For hCTPS2: ATP (0.1 mM), UTP (0.04 mM), GTP (0.03 mM) and L-glutamine (0.1 mM). Each mixture may be incubated for an appropriate amount of time per isoform within the determined linear phase of the reaction at 25° C. A 80 uL volume of stop solution (1% formic acid with 0.5 uM ^13C9-^15N3-CTP in H2O) may be added and the plate immediately heat-sealed and centrifuged for 10 minutes at 4,000 rpm. Following centrifugation, plates may be loaded onto the Agilent RapidFire microfluidic solid phase extraction system coupled to an API4000 triple quadrupole mass spectrometer (RF/MS) for analysis.
In all cases, the enzyme converts UTP to CTP. Highly specific and sensitive multiple reaction monitoring (MRM) MS methods may be optimised for the detection of the enzymatic reaction product, CTP, and the stable isotope labelled product standard ^13C9-^15N3-CTP. Readout for data analysis may be calculated as the ratio between the peak area of the product CTP and the internal standard ^13C9-^15N3-CTP. For data reporting, the following equation may be used:
(R=ratio/readout, P=product signal area, IS=internal standard signal area)
For each screening plate, the means of the negative (DMSO) and positive control values were used for the calculation of the respective assay window (S/B) and Z′ values. The median of the respective control values was used for calculation of percent inhibition according to the following equation:
(I=Inhibition, Rneq=median of negative control readout values, Rpos=median of positive control readout values, Rsample=sample readout value)
Percentage inhibition was then plotted against compound concentration, and the 50% inhibitory concentration (IC50) was determined from the resultant concentration-response curve.
Fold selectivity between CTPS1 and CTPS2 was subsequently calculated according to the following equation: […]

[1] = RapidFire/MS IC50 values of CTPS1 and CTPS2, Table 15
[2] = RapidFire/MS IC50 values of CTPS1 and CTPS2, Table 17
[3] = Table 16, human CTPS1 over human CTPS2, RapidFire/MS IC50 values

Structure (SMILES) | Selectivity (fold selectivity between CTPS1 and CTPS2) [1] | other results
CCOc1cncc(-c2ccc(NC(=O)C(F)(CC)c3cncc(NS(=O)(=O)C4CC4)n3)nc2)n1 (single isomer, unassigned) [P207, 2-(6-(cyclopropanesulfonamido)pyrazin-2-yl)-N-(5-(6-ethoxypyrazin-2-yl)pyridin-2-yl)-2-fluorobutanamide] | + (2-30 fold (+)) | 
CCOc1cncc(-c2ccc(NC(=O)C3(c4ccnc(NS(=O)(=O)C5CC5)n4)CCC(O)CC3)nc2)n1 (single isomer, unassigned) [P227, 1-(2-(cydopropanesulfonamido)pyrimidin-4-yl)-N-(5-(6-ethoxypyrazin-2-yl)pyridin-2-yl)-4-hydroxycyclohexanecarboxamide] |  | Selectivity (fold selectivity between CTPS1 and CTPS2) [2]: +++ (>60 fold (+++))
CCOc1cncc(-c2ccc(NC(=O)C3(c4ccnc(NS(=O)(=O)C5CC5)n4)CCC(O)CC3)nc2)n1 (single isomer, unassigned) [P228, 1-(2-(cyclopropanesulfonamido)pyrimidin-4-yl)-N-(5-(6-ethoxypyrazin-2-yl)pyridin-2-yl)-4-hydroxycyclohexanecarboxamide] |  | Selectivity (fold selectivity between CTPS1 and CTPS2) [2]: +++ (>60 fold (+++))
CCOc1cncc(-c2ccc(NC(=O)C3(c4ccnc(NS(=O)(=O)C5CC5)n4)CCC(N(C)C)CC3)nc2)n1 (single isomer, unassigned) [P229, 1-(2-(cyclopropanesulfonamido)pyrimidin-4-yl)-4-(dimethylamino)-N-(5-(6-ethoxypyrazin-2-yl)pyridin-2-yl)cyclohexane-1-carboxamide] |  | Selectivity (fold selectivity between CTPS1 and CTPS2) [2]: +++ (>60 fold (+++))
CCC(NC(=O)c1ccc(-c2cncc(F)c2)cc1)c1csc(NS(=O)(=O)C2CC2)n1 (single isomer, unassigned) [R68, N-(1-(2-(cyclopropanesulfon-amido)thiazol-4-yl)propyl)-4-(5-fluoropyridin-3-yl)benzamide] |  | Selectivity (fold selectivity between CTPS1 and CTPS2) [3]: ++ (>30-60 fold (++))
CCC(NC(=O)c1ccc(-c2cncc(F)c2)cc1)c1csc(NS(=O)(=O)C2CC2)n1 (single isomer, unassigned) [R69, N-(1-(2-(cyclopropanesulfon-amido)thiazol-4-yl)propyl)-4-(5-fluoropyridin-3-yl)benzamide] |  | Selectivity (fold selectivity between CTPS1 and CTPS2) [3]: +++ (>60 fold (+++))
CCOc1cncc(-c2ccc(C(=O)NC(CC)c3csc(NS(=O)(=O)C4CC4)n3)c(F)c2)n1 (single isomer, unassigned) [R70, N-(1-(2-(cyclopropanesulfon-amido)thiazol-4-yl)propyl)-4-(6-ethoxypyrazin-2-yl)-2-fluorobenzamide] |  | Selectivity (fold selectivity between CTPS1 and CTPS2) [3]: +++ (>60 fold (+++))
CCOc1cncc(-c2ccc(C(=O)NC(CC)c3csc(NS(=O)(=O)C4CC4)n3)c(F)c2)n1 (single isomer, unassigned) [R71, N-(1-(2-(cyclopropanesulfon-amido)thiazol-4-yl)propyl)-4-(6-ethoxypyrazin-2-yl)-2-fluorobenzamide] |  | Selectivity (fold selectivity between CTPS1 and CTPS2) [3]: +++ (>60 fold (+++))
CCOc1cncc(-c2ccc(C(=O)NC(CCOC)c3csc(NS(=O)(=O)C4CC4)n3)c(F)c2)n1 (single isomer, unassigned) [R92, N-(1-(2-(cyclopropanesulfon-amido)thiazol-4-yl)-3-methoxypropyl)-4-(6-ethoxypyrazin-2-yl)-2-fluorobenzamide] |  | Selectivity (fold selectivity between CTPS1 and CTPS2) [3]: +++ (>60 fold (+++))
CCOc1cncc(-c2ccc(C(=O)NC(CCOC)c3csc(NS(=O)(=O)C4CC4)n3)c(F)c2)n1 (single isomer, unassigned) [R93, N-(1-(2-(cyclopropanesulfon-amido)thiazol-4-yl)-3-methoxypropyl)-4-(6-ethoxypyrazin-2-yl)-2-fluorobenzamide] |  | Selectivity (fold selectivity between CTPS1 and CTPS2) [3]: +++ (>60 fold (+++))
CCC(C(=O)Nc1ccc(-c2cncc(Cl)c2)cc1)c1ccnc(NS(=O)(=O)C2CC2)n1 (stereo not drawn) [P1, N-(4-(5-Chloropyridin-3-yl)phenyl)-2-(2-(cyclopropanesulfonamido)pyrimidin-4-yl)butanamide] | + (2-30 fold (+)) | 
CCOc1cncc(-c2ccc(NC(=O)C3(c4ccnc(NS(=O)(=O)C5CC5)n4)CCCC3)cc2)n1 [P2, 1-(2-(Cyclopropanesulfonamido)pyrimidin-4-yl)-N-(4-(6-ethoxypyrazin-2-yl)phenyl)cyclopentanecarboxamide] | +++ (>60 fold (+++)) | 
CC(C)Oc1cncc(-c2ccc(NC(=O)C(C)(C)c3ccnc(NS(=O)(=O)C4CC4)n3)nc2)n1 [P9, 2-(2-(cyclopropanesulfonamido)pyrimidin-4-yl)-N-(5-(6-isopropoxypyrazin-2-yl)pyridin-2-yl)-2-methylpropanamide] | +++ (>60 fold (+++)) | 
CC(C)Oc1cncc(-c2ccc(NC(=O)Cc3ccnc(NS(=O)(=O)C4CC4)n3)c(F)c2)n1 [P12, 2-(2-(cyclopropanesulfonamido)pyrimidin-4-yl)-N-(2-fluoro-4-(6-isopropoxypyrazin-2-yl)phenyl)acetamide] | ++ (>30-60 fold (++)) | 
O=C(Cc1ccnc(NS(=O)(=O)C2CC2)n1)Nc1ccc(-c2cccnc2)cc1 [P16, 2-(2-(cyclopropanesulfonamido)pyrimidin-4-yl)-N-(4-(pyridin-3-yl)phenyl)acetamide] | ++ (>30-60 fold (++)) | 
CCOc1cncc(-c2ccc(NC(=O)Cc3ccnc(NS(=O)(=O)C4CC4)n3)cc2)n1 [P18, 2-(2-(cyclopropanesulfonamido)pyrimidin-4-yl)-N-(4-(6-ethoxypyrazin-2-yl)phenyl)acetamide] | ++ (>30-60 fold (++)) | 
CC(C)Oc1cncc(-c2ccc(NC(=O)Cc3ccnc(NS(=O)(=O)C4CC4)n3)cc2)n1 [P21, 2-(2-(cyclopropanesulfonamido)pyrimidin-4-yl)-N-(4-(6-isopropoxypyrazin-2-yl)phenyl)acetamide] | ++ (>30-60 fold (++)) | 
CCOc1cncc(-c2ccc(NC(=O)C(C)(C)c3ccnc(NS(=O)(=O)C4CC4)n3)nc2)n1 [P31, 2-(2-(cyclopropanesulfonamido)pyrimidin-4-yl)-N-(5-(6-ethoxypyrazin-2-yl)pyridin-2-yl)-2-methylpropanamide] | +++ (>60 fold (+++)) | 
CCOc1cncc(-c2ccc(NC(=O)C(C)(C)c3ccnc(NS(=O)(=O)C4CC4)n3)c(C#N)c2)n1 [P34, N-(2-cyano-4-(6-ethoxypyrazin-2-yl)phenyl)-2-(2-(cyclopropanesulfonamido)pyrimidin-4-yl)-2-methylpropanamide] | + (2-30 fold (+)) | 
CCOc1cncc(-c2ccc(NC(=O)C(C)(C)c3ccnc(NS(=O)(=O)C4CC4)n3)c(F)c2)n1 [P38, 2-(2-(cyclopropanesulfonamido)pyrimidin-4-yl)-N-(4-(6-ethoxypyrazin-2-yl)-2-fluorophenyl)-2-methylpropanamide] | + (2-30 fold (+)) | 
CC(C)Oc1cncc(-c2ccc(NC(=O)C(C)(C)c3ccnc(NS(=O)(=O)C4CC4)n3)c(F)c2)n1 [P39] | + (2-30 fold (+)) | 
